Measured values from paper PMC11249646, “Small-Molecule Disruptors of the Interaction between Calcium- and Integrin-Binding Protein 1 and Integrin αIIbβ3 as Novel Antiplatelet Agents” (ACS Pharmacology & Translational Science, 2024).
Read-outs that look alike come from different tables or passages of the source.

Biological target: T1, CIB1 and αIIb interaction (CIB1-GST : F-αIIb peptide) (Homo sapiens, UniProt Q99828)
T1 construct: made in house; host or cells: BL-21 plus RIL cells (E. coli)
T1 sequence (Q99828 1-191): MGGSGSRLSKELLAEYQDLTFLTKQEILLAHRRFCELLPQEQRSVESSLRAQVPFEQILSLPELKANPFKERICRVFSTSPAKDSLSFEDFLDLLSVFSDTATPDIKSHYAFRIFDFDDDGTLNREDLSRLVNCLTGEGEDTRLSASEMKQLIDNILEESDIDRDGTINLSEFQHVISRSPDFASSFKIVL
Assay: FP assay, 1536-well qHTS format (primary and confirmatory screen)
Assay type: binding
Details: for Efficacy (%): negative = inhibition; for Curve Class: negative sign = inhibitory curve; for IC50: read-out: IC50

[1] = qHTS primary screen hits, Table S2
[2] = qHTS primary screen hits, Table S2, several classes where COUNT > 1
[3] = qHTS primary screen of LOPAC/NPACT libraries

SMILES | Efficacy (%) [1] | Curve Class [2] | IC50 [1] | also measured
COc1ccc(-c2csc(NC(=O)c3ccncc3NS(=O)(=O)c3ccc(C)cc3)n2)cc1.O=C(O)C(F)(F)F [NCGC00319009-01] | -53% | -2.4 | 56.2 µM | –
COc1cccc2c1C(=O)c1c(O)c3c(c(O)c1C2=O)C[C@@](O)(C(=O)CO)CC3OC1CC(N2CCOC(OC)C2)C(O)C(C)O1 (stereo partly drawn) [NCGC00319019-01] | -40% | – | 10 µM | Curve Class [1]: -1.4
Cc1cc(SCc2sc(-c3ccc(Cl)cc3)nc2C)ccc1OCC(=O)O.O=C(O)C(F)(F)F [NCGC00319056-01] | -32% | – | 56.2 µM | Curve Class [1]: -2.4
Cc1ccc(S(=O)(=O)Nc2cnccc2C(=O)Nc2cccc3ccccc23)cc1.O=C(O)C(F)(F)F [NCGC00343900-01] | -32% | – | 50.1 µM | Curve Class [1]: -2.4
Cc1ccc(S(=O)(=O)Nc2cnccc2C(=O)Nc2nc(C(=O)O)cs2)cc1.O=C(O)C(F)(F)F [NCGC00343903-01] | -36% | -2.4 | 50.1 µM | –
O=C(O)C(F)(F)F.O=S(=O)(Nc1ccc(C2CCNCC2)cc1)c1ccc(NCc2ccc(Br)cc2O)cc1 [NCGC00343916-01] | -31% | -2.4 | 56.2 µM | –
COc1cccc(CNc2ccc(S(=O)(=O)Nc3ccc(C4CCNCC4)cc3)cc2)c1O.O=C(O)C(F)(F)F [NCGC00343917-01] | -46% | – | 50.1 µM | Curve Class [1]: -2.4
COc1cc2c(cc1OC)-c1[nH]nc(Nc3cccc(F)c3)c1C2 [NCGC00343986-02] | – | – | – | Efficacy (%) [3]: -25%; Curve Class [3]: -2.4; IC50 [3]: 63.1 µM
O=C(Nc1nc(-c2ccccc2)cs1)c1ccncc1NS(=O)(=O)c1ccc(Cl)cc1.O=C(O)C(F)(F)F [NCGC00344892-01] | -48% | – | 53.2 µM | –
O=C(Nc1nc(-c2ccccc2)cs1)c1ccncc1NS(=O)(=O)c1ccccc1.O=C(O)C(F)(F)F [NCGC00344903-01] | -44% | -2.2 | 44.7 µM | –
Cc1cccc(S(=O)(=O)Nc2cnccc2C(=O)Nc2nc(-c3ccccc3)cs2)c1.O=C(O)C(F)(F)F [NCGC00344904-01] | -43% | -2.4 | 56.2 µM | –
COc1cccc(S(=O)(=O)Nc2cnccc2C(=O)Nc2nc(-c3ccccc3)cs2)c1.O=C(O)C(F)(F)F [NCGC00344906-01] | -33% | -2.2 | 50.1 µM | –
O=C(Nc1nc(-c2ccccc2)cs1)c1ccncc1NS(=O)(=O)c1ccc(F)cc1.O=C(O)C(F)(F)F [NCGC00344931-02] | -38% | – | 53.2 µM | –
O=C(Nc1nc(-c2ccccc2)cs1)c1ccncc1NS(=O)(=O)c1ccc(F)c(F)c1.O=C(O)C(F)(F)F [NCGC00344933-01] | -34% | -3 | 79.4 µM | –
N#Cc1ccc(S(=O)(=O)Nc2cnccc2C(=O)Nc2nc(-c3ccccc3)cs2)cc1.O=C(O)C(F)(F)F [NCGC00344937-01] | -38% | – | 79.4 µM | Curve Class [1]: -2.4
O=C(Nc1nc(-c2ccccc2)cs1)c1ccncc1NS(=O)(=O)c1ccccc1Cl.O=C(O)C(F)(F)F [NCGC00344943-02] | -50% | – | 64.8 µM | –
Cc1cc(S(=O)(=O)Nc2cnccc2C(=O)Nc2nc(-c3ccccc3)cs2)c(C)o1.O=C(O)C(F)(F)F [NCGC00345029-02] | – | – | – | Efficacy (%) (qHTS FP screen hits, Table S2): -46%; IC50 (qHTS FP screen hits, Table S2): 38.1 µM
O=C(Nc1nc(-c2ccccc2)cs1)c1ccncc1NS(=O)(=O)c1ccc(F)cc1Cl.O=C(O)C(F)(F)F [NCGC00345105-01] | -42% | -2.2 | 79.4 µM | –
Fc1cc(Nc2nc(-c3ccncc3)nc3ccccc23)ccc1N1CCNCC1.O=C(O)C(F)(F)F [NCGC00345204-01] | -36% | -2.4 | 89.1 µM | –
CC1(C)CCC(CN2CCN(c3ccc(C(=O)NS(=O)(=O)c4ccc(NCC5CCOCC5)c([N+](=O)[O-])c4)c(Oc4cnc5[nH]ccc5c4)c3)CC2)=C(c2ccc(Cl)cc2)C1 [NCGC00345789-10] | – | – | – | Efficacy (%) [3]: -26%; Curve Class [3]: -2.4; IC50 [3]: 39.8 µM
COc1cc2c(cc1OC)CN(CCc1ccc(NC(=O)c3cc(OC)c(OC)cc3NC(=O)c3cnc4ccccc4c3)cc1)CC2 [NCGC00346448-01] | -30% | -2.4 | 42.9 µM | –
Cc1cc(N2CCOCC2)cc2[nH]c(-c3c(NC[C@@H](O)c4cccc(Cl)c4)cc[nH]c3=O)nc12 [NCGC00346460-05] | – | – | – | Efficacy (%) [3]: -28%; Curve Class [3]: -1.4; IC50 [3]: 17.8 µM

SMILES | Efficacy (%) [1] | Curve Class [2] | IC50 [1] | also measured
C=CC(=O)Nc1cccc(Oc2nc(Nc3ccc(N4CCN(C)CC4)cc3)ncc2Cl)c1 [NCGC00346496-04] | – | – | – | Efficacy (%) [3]: -28%; Curve Class [3]: -2.4; IC50 [3]: 44.7 µM
C=CC(=O)Nc1cccc(Sc2nc(Nc3ccc(N4CCN(C)CC4)cc3)ncc2Cl)c1 [NCGC00346497-02] | – | – | – | Efficacy (%) [3]: -29%; Curve Class [3]: -2.4; IC50 [3]: 20 µM
C=C1C(=O)[C@@]23C(CC[C@@H]1[C@H]2O)[C@@]12CO[C@]3(O)[C@@H](O)[C@@H]1C(C)(C)CC[C@@H]2O (stereo partly drawn) [NCGC00346595-01] | – | – | – | Efficacy (%) (qHTS FP screen hits, Table S2): -48%; IC50 (qHTS FP screen hits, Table S2): 33.3 µM
CC(C)(O)CC(=O)NCCn1ccc2ncnc(Nc3ccc(Oc4cccc(C(F)(F)F)c4)c(Cl)c3)c21 [NCGC00346699-06] | – | – | – | Efficacy (%) [3]: -30%; Curve Class [3]: -2.4; IC50 [3]: 100 µM
COc1cccc(CNc2ccc(S(=O)(=O)Nc3nc(-c4ccccc4)cs3)cc2)c1O.O=C(O)C(F)(F)F [NCGC00346865-01] | -34% | – | 50.1 µM | Curve Class [1]: -2.4
Cc1c(-c2cccc3c(CCCOc4cccc5ccccc45)c(C(=O)O)n(Cc4cccnc4)c23)c(COc2ccc(N3CCN(S(=O)(=O)N(C)C)CC3)cc2)nn1C [NCGC00347282-01] | -34% | -3 | 30.4 µM | –
Cc1cc(OCCCc2c(C(=O)O)n(Cc3cccnc3)c3c(-c4c(COc5ccc(N6CCN(S(C)(=O)=O)CC6)cc5)nn(C)c4C)cccc23)cc(C)c1Cl [NCGC00347283-01] | -26% | – | 34.1 µM | Curve Class [1]: -2.4
COc1ccc(OC)c(-n2c3c(cc(-c4nnn(-c5ccc(Cl)cc5)n4)c2=O)C(=O)CC(C)(C)C3)c1.O=C(O)C(F)(F)F [NCGC00347300-01] | -41% | – | 89.1 µM | Curve Class [1]: -3
CC(=O)O[C@@H](CO[C@@H]1O[C@H](CO)[C@H](O)[C@H](O)[C@H]1O)[C@]1(C)C=C2CC[C@@H]3C(C)(C)[C@@H](O)CC[C@@]3(C)[C@@H]2CC1 [NCGC00347395-02] | – | – | – | Efficacy (%) [3]: -23%; Curve Class [3]: -2.4; IC50 [3]: 15.8 µM
Cc1c(C)n(Cc2ccc(-c3ccccc3C(=O)O)cc2)c2ccc(C(=O)N[C@@H](C)c3ccc([N+](=O)[O-])cc3)cc12 [NCGC00347955-01] | – | – | – | Efficacy (%) (qHTS FP screen hits, Table S2): -32%; IC50 (qHTS FP screen hits, Table S2): 23.5 µM
O=C(Nc1ccc(S(=O)(=O)N2CCOCC2)cc1)c1ccc(N2CCc3ccccc3C2)cc1 [NCGC00348032-01] | -34% | -2.4 | 50.1 µM | –
O=C(Nc1ccc(S(=O)(=O)N2CCOCC2)cc1)c1ccc(CN2CCCc3ccccc32)cc1.O=C(O)C(F)(F)F [NCGC00348355-01] | -15% | -2.4 | 50.1 µM | –
CCC(C)(C)n1nnnc1C(c1cc2ccc(OC)cc2[nH]c1=O)N1CCc2ccccc2C1.O=C(O)C(F)(F)F (stereo not drawn) [NCGC00350929-01] | -29% | -2.4 | 56.2 µM | –
CC1=C(C(=O)Nc2ccc(C(=O)O)cc2)C(c2ccccc2Cl)N=C(Nc2nc3ccccc3o2)N1.O=C(O)C(F)(F)F (stereo not drawn) [NCGC00351025-01] | -29% | -2.4 | 50.1 µM | –
O=C(O)C(F)(F)F.O=C(c1ccc2ccccc2c1)c1no[n+]([O-])c1C(=O)c1ccc2ccccc2c1 [NCGC00351316-01] | -35% | – | 44.7 µM | Curve Class [1]: -2.2
C#CCOC(=O)NCCCC[C@H](N)C(=O)O [NCGC00351539-01] | -24% | -2.4 | 56.2 µM | –
Cc1ccccc1C(=O)N1CCc2cc(-c3nc(NC(=O)Cc4cccc(OCCOCCOCCN)c4)sc3C)ccc21.O=C(O)C(F)(F)F [NCGC00351617-01] | -37% | -2.4 | 50.1 µM | –
CCCCn1nc(-c2ccccc2)c2nc3ccccc3nc21.O=C(O)C(F)(F)F [NCGC00351644-02] | -127% | -1.1 | 25.1 µM | –
O=C(O)C(F)(F)F.O=C(O)c1csc(-n2nc(-c3ccc(F)c(Cc4ccccc4)c3)cc2O)n1 [NCGC00356005-01] | -47% | -2.2 | 79.4 µM | –
CCOC(=O)OC(C)OC(=O)c1csc(-n2nc(-c3ccc(F)c(F)c3)cc2O)n1.O=C(O)C(F)(F)F (stereo not drawn) [NCGC00356024-01] | -35% | -2.4 | 79.4 µM | –
O=C(O)C(F)(F)F.OC(CN1CCCCC1)Cn1c2ccc(Cl)cc2c2cc(Cl)ccc21 (stereo not drawn) [NCGC00356030-01] | -35% | – | 79.4 µM | Curve Class [1]: -3
